Data taken from publication PMC7822874, “Chemoprotective antimalarials identified through quantitative high-throughput screening of Plasmodium blood and liver stage parasites” (Scientific Reports, 2021).
Like-named read-outs stand apart in the source and are kept apart here.

Key:
in vitro [1] = conditions: human, hepg2 cells
[2] = system: Plasmodium falciparum Dd2 asexual blood stage parasites; assay: microbe, parasite or virus in culture; set-up: species or system Plasmodium falciparum Dd2 in human erythrocytes; single determination (one 11-point concentration-response curve); conditions: Plasmodium falciparum, DD2, Erythrocyte, 72 h; read-out: AC50
[3] = system: P. berghei-ANKA-GFP-LucCON liver stage parasites in HepG2-A16-CD81EGFP cells; assay: P. berghei liver stage Pb-Luc assay, Method 1 (UCSD, 1536-well); assay type: cell-based, Plasmodium berghei; conditions: P. berghei liver stage, averaged response (percent); for Average P. berghei 1 µM response (%): the header list (r8) defines it as the 1 µM dose
HepG2-A16-CD81EGFP cells = conditions: averaged response (percent)
[4] = system: P. falciparum Dd2 (clone B2) asexual blood stage parasites; assay: P. falciparum Dd2 asexual blood stage SYBR Green-I 72 h proliferation assay (qHTS); assay type: cell-based, Plasmodium falciparum; conditions: log10 of AC50 in M; for Pf ABS Log AC50 (M): averaged P. falciparum asexual blood stage potency
in vitro [5] = conditions: human, hepg2-a16-cd81egfp cells
in vitro [6] = conditions: human, HepG2-A16-CD81EGFP cells, uninfected
[7] = system: luciferase-expressing P. berghei liver stage parasites in HepG2 cells; assay: Inhibition of liver-stage development assay (ILSDA), Method 2 (WRAIR, 96-well); assay type: cell-based, Plasmodium berghei; conditions: Method 2, dose response; for AC50: Plasmodium berghei, HepG2, P. berghei liver stage
[8] = HepG2, the header list (r10) describes it as the 1 µM dose

SMILES	CC50 at 48 h (in vitro [1])	AC50 [2]	Average P. berghei 3 µM response( %) [3]	Average P. berghei 1 µM response (%) [3]	Average HepG2 3 µM response( %) (HepG2-A16-CD81EGFP cells; HepG2, 3 µM dose)	Average HepG2 3 µM response( %) (HepG2-A16-CD81EGFP cells; [8])	Pf ABS Log AC50 (M) [4]	viability at 3 µM (in vitro [5]; % viability)	further results
CCN1CCN(c2cc(C)c3cc(NC(=O)c4cccc(Cl)c4)ccc3n2)CC1 [NCGC00103820-01]	> 57 µM	4.73 µM							
Cc1noc(C)c1-c1cc2c(cc(-c3ccccc3)n2C)c(-c2ccnn2C)n1 [NCGC00417162-01]	> 57 µM	8.63 µM							
COc1ccc(-c2cc3nc4c(c(=O)n3[nH]2)CN(C(=O)c2ccc(Cc3c(C)noc3C)o2)CC4)cc1 [NCGC00440331-01]	0.685 µM								
Cc1nn2c(c1-c1ccccc1[S+](C)(=O)[O-])N(Cc1ccc(C(=O)O)s1)CCC2 [NCGC00420344-01]	> 57 µM	7.69 µM							
O=c1c2nc(-c3cccc(O)c3)ccc2ncn1C1CC1 [NCGC00414734-01]	> 57 µM								
COc1ccc(CN2C[C@@H](F)[C@@H](OCc3nc4cc(C)ccc4[nH]3)C2)cc1 [NCGC00393009-01]	> 57 µM								
Cc1csc(Nc2ccc3c(n2)CN(Cc2ccccc2C)C(=O)CO3)n1 [NCGC00413860-01]	> 57 µM	19.3 µM							
N#Cc1c(N2CCN(c3ccc(F)cc3)CC2)nc(N)c2c(N)nc3c(c12)CC(=O)N3C1CC1 [MLS001003889]			50%	101%	90%	102%	-6.262 M	89.7%	
O=C(Nc1ccc(Cl)cc1)c1nc2c(o1)CCN(Cc1ccc(F)cc1F)CC2 [NCGC00413332-01]	> 57 µM								
Cc1nn2c(c1-c1ccccc1-c1ccccc1)N(Cc1cccc(O)c1)CCC2 [NCGC00420293-01]	> 57 µM	4.85 µM							
O=C(CCl)Nc1ccc(Oc2cnc3ccccc3n2)cc1 [MLS000327546]			121%	109%	91%	88%	-5.812 M	90.9%	
O=C(Nc1ccc(Nc2ccncc2)cc1)c1ccc(Nc2ccnc3ccc([N+](=O)[O-])cc23)cc1 [MLS000766132]			96%	114%	90%	92%	-6.337 M	90.3%	
Cc1cc(Nc2nc3ccccc3nc2Cl)n(-c2ccccc2C)n1 [MLS000595322]			93%	114%	98%	93%	-6.062 M	98.3%	
Cc1cc(O)c(CN2CCN(c3ccccc3)CC2)cc1C [MLS000569270]			97%	88%	107%	102%	-5.650 M		viability at 3 µM (in vitro [5]): 107%
CCCCc1c(C)c(C#N)c2nc3ccccc3n2c1Nc1c(C)n(C)n(-c2ccccc2)c1=O [MLS000555448]			121%	128%	90%	93%	-5.662 M	90.2%	
Cc1nn2c(c1-c1ccccc1C(C)C)N(CCC(C)C)CCC2 [NCGC00420439-01]	> 57 µM	2.17 µM							
Cc1ccc(NC2=C(N3CCCCC3)C(=O)c3ccccc3C2=O)cc1 [MLS000532222]			14%	71%	77%	99%	-6.600 M	76.9%	
Cc1ccc(C)c(-n2c(-c3ccc(Br)cc3)csc2=NC(=O)c2ccccc2F)c1 [MLS000766129]			44%	91%	89%	97%	-5.187 M	89.1%	

SMILES	CC50 at 48 h (in vitro [1])	AC50 [2]	Average P. berghei 3 µM response( %) [3]	Average P. berghei 1 µM response (%) [3]	Average HepG2 3 µM response( %) (HepG2-A16-CD81EGFP cells; HepG2, 3 µM dose)	Average HepG2 3 µM response( %) (HepG2-A16-CD81EGFP cells; [8])	Pf ABS Log AC50 (M) [4]	viability at 3 µM (in vitro [5]; % viability)	further results
CN(C(Cc1ccc(O[S+](=O)([O-])c2cccc3cnccc23)cc1)C(=O)N1CCN(c2ccccc2)CC1)[S+](=O)([O-])c1cccc2cnccc12 (stereo not drawn) [NCGC00163381]			77%		79%	87%	-6.300 M	79.2%	
NS(=O)(=O)c1ccc(N/N=C/c2cn(-c3ccccc3)nc2-c2cccs2)cc1 [MLS000393371]			24%	69%	94%	91%	-6.762 M	94.1%	
NC1=NC[C@@H](Cc2ccc(O)cc2)N1CCCCC1CCCCC1 [MLS000888822]			40%	86%	98%	113%	-5.487 M	97.6%	
CCCn1c2c(c(=N)c3c1CCC3)CCC2 [MLS001047442-01]	> 57 µM	13.3 µM							viability at 48 h (in vitro [6]): 99.2%; viability at 48 h, 1 µM (in vitro [6]): 99.2%
O=c1[nH]c(N2CCOCC2)nc2c1CCN(Cc1ccc(Cl)cc1F)CC2 [NCGC00440653]			41%	39%	102%	102%			AC50 ([4]; Plasmodium falciparum, DD2, averaged P. falciparum asexual blood stage potency, read-out: Pf ABS Log AC50 (converted)): 3.35 µM; Activity direction (Decrease / Inactive) ([7]; P. berghei liver stage): Decrease; AC50 ([7]; read-out: AC50): 0.112 µM; AC50 ([7]; read-out: Log AC50 (converted)): 0.112 µM
COCC(=O)N[C@H]1C[C@@H](Cc2cc(-c3ccc(OC)cc3)on2)C1(C)C [NCGC00395450-01]	> 57 µM								
Cc1nn(-c2ccccc2)c(C)c1/C=N/Nc1nc2ccccc2[nH]1 [MLS000332160]			43%	83%	87%	92%	-6.012 M	87.3%	
CN(C)c1ccc2ncc(Nc3ccc(Oc4ccccc4)cc3)n2n1 [NCGC00412534-01]	> 57 µM	8.63 µM							
Cc1cc(N2CCC(N(C)C3CCCC3)CC2)nc2cc(O)ccc12 [MLS000118330-01]	> 57 µM	5.96 µM							
C/C(=N\Nc1ncnc2sc(C)c(C)c12)c1ccccn1 [MLS001176565]			5.49%	9%	40%	52%	-5.912 M	40.2%	
Cc1cc(C)n(-c2nnc(N3CCN(c4ccccc4)CC3)nn2)n1 [MLS000695202]			84%	102%	94%	97%	-6.012 M	93.9%	
Cc1nn2c(c1-c1ccccc1Oc1ccccc1)N(Cc1cccc(O)c1)CCC2 [NCGC00420295-01]	> 57 µM	10.9 µM							
O=C(Nc1ccc(-c2csc(Nc3cccc(C(F)(F)F)c3)n2)cc1)c1cc([N+](=O)[O-])cc(C(F)(F)F)c1 [MLS000911524]			73%	100%	101%	101%	-5.387 M	101%	
CCc1ccccc1OC[C@@H](O)CN[C@@H]1CCCc2ccccc21 [NCGC00025196]			77%	73%	92%	95%	-5.800 M	91.7%	
Cc1nn2c(c1-c1ccccc1OCc1ccccc1)N(Cc1ccccc1)CCC2 [NCGC00420471-01]	> 57 µM	15.3 µM							
O=C(c1ccc(-c2ncc3cnc(-c4cccc(F)c4)cn23)cc1)N1CCc2cccnc21 [NCGC00414026-01]	> 57 µM								
Cc1cccc(-c2cc3nc(C)c(C)c(NCCCn4ccnc4)n3n2)c1 [MLS000529525]			119%	131%	87%	97%	-5.512 M	87.2%	
COCCNc1ncccc1-c1noc([C@@H]2CCCN2Cc2ccccn2)n1 [NCGC00394837-01]	> 57 µM	7.69 µM							
